The values below come from patent US9757426B2, “Peptide additives for enhancing acceptance and ingestion of edibles by rodents and uses thereof” (priority 2013, dated 2017).

Common to all, as to type: in vivo
Assay [1] deals with mice. Description: Concentration/response functions, preference for warfarin-containing food. To be noted: both foods contain 0.025% warfarin, +/- SEM. The text has this: Concentration/response functions were studies for uroguanylin. […] A preference ratio of 0.5 indicates no preference.
Concentration/response functions were also studied for guanylin. […] A preference ratio of 0.5 indicates no preference.

The test system of assay [2] is C57BL/6J mice. Description: Preference testing after uroguanylin exposure (B6 mice). To be noted: mean ± s.e.m. The text has this: Food preference testing—Food preference assays were modified from those used previously for testing the social transmission of food preference in rats and mice (Galef et al. 1983; Posadas-Andrews and Roper 1983; Valsecchi and Galef 1989; Crawley 2007; Ryan et al. 2008; Munger et al. 2010). In all experiments, subject mice were pair-housed for four days in standard cages with the food container placed on the cage floor. Mice were fed a crushed rodent diet (2018SX, Harlan) to habituate them to powdered food. The amount of food was restricted to 2 g/mouse/day to facilitate feeding during the food preference tests. […] All data were expressed as mean ±S.E.M. Differences were accepted as significant if p<0.05 (see below for statistical tests).
B6 mice were randomly assigned into one of three groups (n=8 each). On the test day, each mouse was moved to individual cages and presented with a petri dish containing a drop of saline (150 μl) with added flavor powder (2% cocoa or 1% cinnamon) with or without uroguanylin (0, 50 nM or 50 μM). After 1 hr exposure, mice were moved to clean cages. After 3 hrs, mice were presented with two food trays (3.5 cm petri dishes mounted to a weighted plastic stage), one of which contained cocoa-odored food (3.5 g) and the other cinnamon-odored food (3.5 g). Subject mice were allowed to feed for 1 hr, at which point the food trays were removed and weighed to calculate the amount of each food consumed. […] Significance between stimulus conditions was determined by one-way ANOVA.
The chemostimulus CS2, when paired with a food odor, is sufficient to increase the attractiveness of foods and to promote the acquisition of food preferences in mice (Bean et al. 1988; Munger et al. 2010). Whether uroguanylin could serve a similar role was tested. Individual observer mice were allowed to interact with a petri dish containing an odor (2% cocoa or 1% cinnamon) with or without uroguanylin (50 nM or 50 μM) in saline. Each mouse was subsequently presented with a choice of two odored chows (cocoa vs. cinnamon).

Assay [3] has as its system mice. Description: Maintenance over time of uroguanylin-dependent preferences (warfarin-containing foods, retests). To be noted: 50 nM uroguanylin. The protocol: Mice form preferences to food and feeding sites when food odors are paired with the social cues uroguanylin. It was determined whether mice will maintain this preference and return to the learned food odor even after the food has been tainted with the commonly used rodenticide warfarin. […] A preference ratio of 0.5 indicates no preference. […] These same mice were retested one and four days after the initial day of testing. […] By contrast, there was no effect of the test day on the preference ratio.

[4] abbreviates: 1 nM peptide + food odor in saline for 1 hr.
Where [5] appears, read: 50 nM peptide + food odor in saline for 1 hr.

No end group written: not given here.

On to “uroguanylin (NDDCELCVNVACTGCL; ends and bridges not checked; cysteine pairing not given here; UniProt Q16661 97-112, looked up) [guanylin family peptide, naturally-occurring peptide hormone produced in the intestines; GC-D agonist]”, for which the “Preference ratio (PR = food with demonstrated odor (g) consumed/total food (g) consumed)” value in assay [1] (setting [4]) is 0.65 +/−0.05; in assay [1] (setting [5]) it was 0.76 +/−0.04. Further, the “Amount of food consumed, Total food” value was 1.42 ± 0.19 g in assay [2] (Odor + UG (50 nM)) and 1.50 ± 0.26 g in assay [2] (Odor + UG (50 μM)). Further, the “Amount of food consumed, w/demonstrated odor” value in assay [2] (Odor + UG (50 nM)) is recorded as 1.08 ± 0.14 g; in assay [2] (Odor + UG (50 μM)), 1.15 ± 0.14 g. In addition, the “Amount of food consumed, w/novel odor” value came to 0.34 ± 0.08 g in assay [2] (Odor + UG (50 nM)) and 0.35 ± 0.12 g in assay [2] (Odor + UG (50 μM)). Also, the “Preference ratio (PR)” value in assay [3] (initial day of testing, both foods contain 0.025% warfarin) is 0.76+/−0.04; in assay [3] (retest Day 2, foods contain 0.025% warfarin) it was 0.72 +/−0.06; in assay [3] (retest Day 5, foods contain 0.025% warfarin), 0.74 +/−0.08.

For the substance “guanylin (PGTCEICAYAACTGC; ends and bridges not checked; cysteine pairing not given here; UniProt Q02747 101-115, looked up) [guanylin family peptide, naturally-occurring peptide hormone produced in the intestines]”, the “Preference ratio (PR = food with demonstrated odor (g) consumed/total food (g) consumed)” value in assay [1] (setting [4]) is listed as 0.75 +/−0.04; in assay [1] (setting [5]) it was 0.72 +/−0.04.
